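In this assay, cells in 96-well plates receive the compound at five concentrations for 48 hours. Endpoints are linearly interpolated between the surrounding concentrations. GI50 is the concentration that inhibits growth by half. TGI: total growth inhibition.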 A value given as a limit tells only on which side of the number the result lay.

Among the data in PubChem BioAssay (NCI) are TGI and GI50 values, retold here.

Test systems include SK-MEL-28 melanoma; NCI-H460 lung; 786-0 renal; MOLT-4 leukemia; M14 melanoma; EKVX NSCLC; A498 renal; SF-268 CNS; HOP-62 NSCLC; HT29 colon.
Assay in all cases: growth of human tumour cells (NCI), 48 h

In the case of `CN(C=O)/C=C/c1cc(O)ccc1O`, the TGI with SK-MEL-28 melanoma is > 58.3 µM; with NCI-H460 lung it was > 74.7 µM; with 786-0 renal, 33.7 µM; with MOLT-4 leukemia, 29.4 µM; in the assay with M14 melanoma it was > 57.9 µM; with EKVX NSCLC, 63.8 µM. Also, the TGI was > 100 µM in the assay with A498 renal, 48.5 µM in the assay with SF-268 CNS, > 71.5 µM with HOP-62 NSCLC and 49.2 µM in the assay on HT29 colon.

Regarding `CCOP(=O)(Nc1ccc2oc(=O)c3ccccc3c2c1)OCC`, the TGI in the assay on SK-MEL-28 melanoma, in the assay with NCI-H460 lung, in the assay with 786-0 renal, in the assay with MOLT-4 leukemia, in the assay on M14 melanoma and with EKVX NSCLC was > 100 µM each time. For the same compound, the TGI in the assay on A498 renal, in the assay with SF-268 CNS, in the assay on HOP-62 NSCLC and with HT29 colon was > 100 µM in each case.

On to `COc1ccc(OC)c2c3c(ccc12)C(c1ccccc1)OC3=O` (stereo not given), for which the TGI in the assay with SK-MEL-28 melanoma is > 100 µM; in the assay with NCI-H460 lung it was > 100 µM; with 786-0 renal, > 100 µM; in the assay with MOLT-4 leukemia it was 99.7 µM; with M14 melanoma it was > 100 µM; with EKVX NSCLC, > 100 µM. Also, the TGI in the assay with A498 renal, with SF-268 CNS, in the assay on HOP-62 NSCLC and in the assay on HT29 colon was > 100 µM throughout.

Turning to `COc1cc(/C=C(\C#N)C(N)=C(C#N)C#N)cc(O)c1O`, the TGI in the assay with SK-MEL-28 melanoma, with NCI-H460 lung, in the assay with 786-0 renal, in the assay with MOLT-4 leukemia, in the assay with M14 melanoma and in the assay on EKVX NSCLC was > 100 µM each time. For the same compound, the TGI with A498 renal, with SF-268 CNS, with HOP-62 NSCLC and in the assay on HT29 colon was > 100 µM throughout.

Turning to `C[N+](C)(C)CC1CCCC(C[N+](C)(C)C)C1O` (stereo not given), the TGI with SK-MEL-28 melanoma, in the assay with NCI-H460 lung, in the assay with 786-0 renal, with MOLT-4 leukemia, in the assay with M14 melanoma and with EKVX NSCLC was > 100 µM each time. For the same compound, the TGI with A498 renal, with SF-268 CNS, with HOP-62 NSCLC and in the assay with HT29 colon was > 100 µM throughout.

As to `COC(=O)/C(=N/NC(N)=O)C(C(=O)OC)C(=O)C(=O)Nc1ccc(Cl)cc1` (stereo not given), the TGI in the assay with SK-MEL-28 melanoma, with NCI-H460 lung, in the assay on 786-0 renal, with MOLT-4 leukemia, in the assay with M14 melanoma and in the assay on EKVX NSCLC was > 100 µM each time. In addition, the TGI with A498 renal, in the assay with SF-268 CNS, in the assay on HOP-62 NSCLC and in the assay with HT29 colon was > 100 µM each time.

Turning to `COc1ccc(CCN=C2CCC(C(=O)NCCc3ccc(OC)c(OC)c3)N2)cc1OC` (stereo not given), the TGI in the assay with SK-MEL-28 melanoma, in the assay with NCI-H460 lung, in the assay with 786-0 renal, in the assay on MOLT-4 leukemia, in the assay on M14 melanoma and in the assay with EKVX NSCLC was > 100 µM each time. The TGI in the assay with A498 renal, with SF-268 CNS, in the assay with HOP-62 NSCLC and in the assay with HT29 colon was > 100 µM in each case.

With `CCOc1ccc(C(CN2CCOCC2)C(C)=O)cc1OC` (stereo not given), the TGI in the assay with SK-MEL-28 melanoma was 35.8 µM; in the assay with NCI-H460 lung, 32.5 µM; in the assay with 786-0 renal it was 15.7 µM; with MOLT-4 leukemia it was > 100 µM; in the assay with M14 melanoma, 33.7 µM; in the assay on EKVX NSCLC it was 50.3 µM. Also, the TGI was 59 µM in the assay on A498 renal, 41 µM with SF-268 CNS, 40.4 µM in the assay with HOP-62 NSCLC and 34.8 µM in the assay with HT29 colon.

As to `O=C(Nc1ccccc1C(=O)N/N=C(\c1ccccc1)c1ccccn1)c1ccc(F)cc1`, the GI50 was 0.536 µM in the assay on SK-MEL-28 melanoma; 0.105 µM in the assay with NCI-H460 lung; 0.281 µM with 786-0 renal; 0.284 µM in the assay with MOLT-4 leukemia; 0.276 µM in the assay with M14 melanoma; 0.169 µM in the assay with EKVX NSCLC. The GI50 is 1.37 µM with A498 renal, 0.364 µM with SF-268 CNS, 0.214 µM in the assay on HOP-62 NSCLC and 0.165 µM in the assay with HT29 colon. Besides, the TGI was > 100 µM in the assay with SK-MEL-28 melanoma; 4.19 µM with NCI-H460 lung; 8.44 µM in the assay with 786-0 renal; > 100 µM in the assay on MOLT-4 leukemia; 3.89 µM with M14 melanoma; > 100 µM with EKVX NSCLC. Besides, the TGI with A498 renal was 9.43 µM; with SF-268 CNS it was > 100 µM; in the assay with HOP-62 NSCLC, > 38.5 µM; with HT29 colon, > 100 µM.

Regarding `Nc1ccc2c(c1)c(N)nn2C(=O)Nc1ccc(Cc2ccccc2)cc1`, the GI50 with SK-MEL-28 melanoma is 13.7 µM; in the assay on NCI-H460 lung it was 4.64 µM; in the assay on 786-0 renal, 12.4 µM; in the assay with MOLT-4 leukemia, 4.48 µM; with M14 melanoma, 4.59 µM; in the assay on EKVX NSCLC, 14 µM. Moreover, the GI50 with A498 renal is 14.4 µM; in the assay with SF-268 CNS, 13 µM; in the assay on HOP-62 NSCLC, 11.2 µM; with HT29 colon it was 4.51 µM. Moreover, the TGI in the assay on SK-MEL-28 melanoma came to 27.8 µM; in the assay with NCI-H460 lung, 23.8 µM; with 786-0 renal it was 25.9 µM; in the assay with MOLT-4 leukemia, 24.3 µM; in the assay on M14 melanoma, 17.8 µM; in the assay with EKVX NSCLC, 36.7 µM. Also, the TGI in the assay with A498 renal is 28.4 µM; with SF-268 CNS, 30.7 µM; with HOP-62 NSCLC it was 27 µM; in the assay with HT29 colon, 17.2 µM.

Regarding `Cc1cc(Cl)ccc1NS(=O)(=O)c1ccc(-c2cnc(C3CC3)o2)cc1`, the GI50 in the assay on SK-MEL-28 melanoma is 4.9 µM; in the assay with NCI-H460 lung it was 0.37 µM; in the assay on 786-0 renal, 0.561 µM; with MOLT-4 leukemia, 0.405 µM; with M14 melanoma it was 0.254 µM; in the assay on EKVX NSCLC, 0.411 µM. Besides, the GI50 was 0.0915 µM in the assay on A498 renal, 2.98 µM with SF-268 CNS, 0.556 µM in the assay with HOP-62 NSCLC and 0.267 µM in the assay on HT29 colon. In addition, the TGI in the assay on SK-MEL-28 melanoma is 22.8 µM; with NCI-H460 lung it was 12.4 µM; with 786-0 renal, 17.5 µM; with MOLT-4 leukemia, > 44.2 µM; in the assay on M14 melanoma, 15.3 µM; with EKVX NSCLC it was 28.5 µM. For the same compound, the TGI in the assay on A498 renal came to 0.841 µM; in the assay on SF-268 CNS it was 23 µM; in the assay on HOP-62 NSCLC, 21.5 µM; in the assay on HT29 colon, 11.8 µM.
